# Assay results: patent US20260028354A1, “TETRAHYDRONAPHTHALENE DERIVATIVES AS ESTROGEN RECEPTOR DEGRADERS” (REGENT OF THE UNIVERSITY OF MICHIGAN, priority 2022, published 2026)
# Assay: Western blot analysis for "B" compounds
# Type: cell-based
# Conditions: read-out: Traditional Western Degradation Potency (DC50)
# Outline: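 Compound-treated cells lysed in RIPA buffer with protease inhibitors; equal protein (BCA) run on 10% SDS-PAGE, transferred to PVDF and probed with target antibodies. Band intensities quantified by densitometry and normalized to GAPDH.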
row,SMILES,DC50 [nM]
1,"O=C1CCC(N2C(=O)c3cc4c(cc3C2=O)CN(CC(=O)N2CC3(CCN(c5ccc([C@@H]6c7ccc(O)cc7CC[C@@H]6c6ccccc6)cc5)CC3)C2)CCC4)C(=O)N1 (mixture of isomers) [Compound B261, 2-(2,6-dioxopiperidin-3-yl)-6-(2-(7-(4-((1R,2S)-6-hydroxy-2-phenyl-1,2,3,4-tetrahydronaphthalen-1-yl)phenyl)-2,7-diazaspiro[3.5]nonan-2-yl)-2-oxoethyl)-6,7,8,9-tetrahydroazepino[3,4-f]isoindole-1,3(2H,5H)-dione]",> 100
2,"O=C1CCC(N2C(=O)c3cc4c(cc3C2=O)CN(C2CCN(C(=O)C3CCN(c5ccc([C@@H]6c7ccc(O)cc7CC[C@@H]6c6ccccc6)cc5)CC3)CC2)C4)C(=O)N1 (stereo partly drawn) [Compound B7, 2-(2,6-dioxopiperidin-3-yl)-6-(1-(1-(4-((1R,2S)-6-hydroxy-2-phenyl-1,2,3,4-tetrahydronaphthalen-1-yl)phenyl)piperidine-4-carbonyl)piperidin-4-yl)-6,7-dihydropyrrolo[3,4-f]isoindole-1,3(2H,5H)-dione]",< 10
3,"O=C1CCC(N2C(=O)c3cc4c(cc3C2=O)CN(C(=O)c2ccc(CC(=O)N3CCCC(Oc5ccc([C@@H]6c7ccc(O)cc7CC[C@@H]6c6ccccc6)cc5)C3)cc2)C4)C(=O)N1 (stereo partly drawn) [Compound B16, 2-(2,6-dioxopiperidin-3-yl)-6-(4-(2-(3-(4-((1R,2S)-6-hydroxy-2-phenyl-1,2,3,4-tetrahydronaphthalen-1-yl)phenoxy)piperidin-1-yl)-2-oxoethyl)benzoyl)-6,7-dihydropyrrolo[3,4-f]isoindole-1,3(2H,5H)-dione]",10 to 100
4,"C[C@H]1CC2(CCN(CC(=O)N3Cc4cc5c(cc4C3)C(=O)N(C3CCC(=O)NC3=O)C5=O)CC2)CN1c1ccc([C@@H]2c3ccc(O)cc3CC[C@@H]2c2ccccc2)cc1 (stereo partly drawn) [Compound B25, 2-(2,6-dioxopiperidin-3-yl)-6-(2-((S)-2-(4-((1R,2S)-6-hydroxy-2-phenyl-1,2,3,4-tetrahydronaphthalen-1-yl)phenyl)-3-methyl-2,8-diazaspiro[4.5]decan-8-yl)acetyl)-6,7-dihydropyrrolo[3,4-f]isoindole-1,3(2H,5H)-dione]",> 100
5,"C[C@@H]1CC2(CCN(c3ccc([C@@H]4c5ccc(O)cc5CC[C@@H]4c4ccc(F)cc4)cc3)CC2)CN1CC(=O)N1Cc2cc3c(cc2C1)C(=O)N(C1CCC(=O)NC1=O)C3=O (stereo partly drawn) [Compound B27, 2-(2,6-dioxopiperidin-3-yl)-6-(2-((R)-8-(4-((1R,2S)-2-(4-fluorophenyl)-6-hydroxy-1,2,3,4-tetrahydronaphthalen-1-yl)phenyl)-3-methyl-2,8-diazaspiro[4.5]decan-2-yl)acetyl)-6,7-dihydropyrrolo[3,4-f]isoindole-1,3(2H,5H)-dione]",> 100
6,"O=C1CCC(N2C(=O)c3cc4c(cc3C2=O)CN(CC(=O)N2CCC[C@H](Oc3ccc([C@@H]5c6ccc(O)cc6CC[C@@H]5c5ccc(F)cc5)cc3)C2)C4)C(=O)N1 (stereo partly drawn) [Compound B36, 2-(2,6-dioxopiperidin-3-yl)-6-(2-((S)-3-(4-((1R,2S)-2-(4-fluorophenyl)-6-hydroxy-1,2,3,4-tetrahydronaphthalen-1-yl)phenoxy)piperidin-1-yl)-2-oxoethyl)-6,7-dihydropyrrolo[3,4-f]isoindole-1,3(2H,5H)-dione]",> 100
7,"O=C1CCC(N2C(=O)c3cc4c(cc3C2=O)CN(CC2CN(C(=O)C3CN(c5ccc([C@@H]6c7ccc(O)cc7CC[C@@H]6c6ccccc6)cc5)C3)C2)C4)C(=O)N1 (stereo partly drawn) [Compound B37, 2-(2,6-dioxopiperidin-3-yl)-6-((1-(1-(4-((1R,2S)-6-hydroxy-2-phenyl-1,2,3,4-tetrahydronaphthalen-1-yl)phenyl)azetidine-3-carbonyl)azetidin-3-yl)methyl)-6,7-dihydropyrrolo[3,4-f]isoindole-1,3(2H,5H)-dione]",> 100
8,"O=C1CCC(N2C(=O)c3cc4c(cc3C2=O)CN(C(=O)CN2CCC[C@H](Oc3ccc([C@@H]5c6ccc(O)cc6CC[C@@H]5c5ccc(F)cc5)cc3)C2)C4)C(=O)N1 (stereo partly drawn) [Compound B38, 2-(2,6-dioxopiperidin-3-yl)-6-(2-((S)-3-(4-((1R,2S)-2-(4-fluorophenyl)-6-hydroxy-1,2,3,4-tetrahydronaphthalen-1-yl)phenoxy)piperidin-1-yl)acetyl)-6,7-dihydropyrrolo[3,4-f]isoindole-1,3(2H,5H)-dione]",> 100
9,"O=C1CCC(N2C(=O)c3cc4c(cc3C2=O)CCN(CC(=O)N2CCC3(CC2)CCN(c2ccc([C@@H]5c6ccc(O)cc6CC[C@@H]5c5ccccc5)cc2)CC3)CC4)C(=O)N1 (stereo partly drawn) [Compound B39, 2-(2,6-dioxopiperidin-3-yl)-7-(2-(9-(4-((1R,2S)-6-hydroxy-2-phenyl-1,2,3,4-tetrahydronaphthalen-1-yl)phenyl)-3,9-diazaspiro[5.5]undecan-3-yl)-2-oxoethyl)-6,7,8,9-tetrahydroazepino[4,5-f]isoindole-1,3(2H,5H)-dione]",> 100
10,"O=C1CCC(N2C(=O)c3cc4c(cc3C2=O)CCN(C(=O)CN2CCC3(CC2)CCN(c2ccc([C@@H]5c6ccc(O)cc6CC[C@@H]5c5ccccc5)cc2)CC3)CC4)C(=O)N1 (stereo partly drawn) [Compound B40, 2-(2,6-dioxopiperidin-3-yl)-7-(2-(9-(4-((1R,2S)-6-hydroxy-2-phenyl-1,2,3,4-tetrahydronaphthalen-1-yl)phenyl)-3,9-diazaspiro[5.5]undecan-3-yl)acetyl)-6,7,8,9-tetrahydroazepino[4,5-f]isoindole-1,3(2H,5H)-dione]",> 100
11,"O=C1CCC(N2C(=O)c3cc4c(cc3C2=O)CCN(CC(=O)N2CC3(CCN(c5ccc([C@@H]6c7ccc(O)cc7CC[C@@H]6c6ccccc6)cc5)CC3)C2)CC4)C(=O)N1 (stereo partly drawn) [Compound B41, 2-(2,6-dioxopiperidin-3-yl)-7-(2-(7-(4-((1R,2S)-6-hydroxy-2-phenyl-1,2,3,4-tetrahydronaphthalen-1-yl)phenyl)-2,7-diazaspiro[3.5]nonan-2-yl)-2-oxoethyl)-6,7,8,9-tetrahydroazepino[4,5-f]isoindole-1,3(2H,5H)-dione]",> 100
12,"O=C1CCC(N2C(=O)c3cc4c(cc3C2=O)CCN(C(=O)CN2CC3(CCN(c5ccc([C@@H]6c7ccc(O)cc7CC[C@@H]6c6ccccc6)cc5)CC3)C2)CC4)C(=O)N1 (stereo partly drawn) [Compound B42, 2-(2,6-dioxopiperidin-3-yl)-7-(2-(7-(4-((1R,2S)-6-hydroxy-2-phenyl-1,2,3,4-tetrahydronaphthalen-1-yl)phenyl)-2,7-diazaspiro[3.5]nonan-2-yl)acetyl)-6,7,8,9-tetrahydroazepino[4,5-f]isoindole-1,3(2H,5H)-dione]",> 100
13,"O=C1CCC(N2C(=O)c3cc4c(cc3C2=O)CCN(CC(=O)N2CC3(CCN(c5ccc([C@@H]6c7ccc(O)cc7CC[C@@H]6c6ccc(F)cc6)cc5)CC3)C2)CC4)C(=O)N1 (stereo partly drawn) [Compound B53, 2-(2,6-dioxopiperidin-3-yl)-7-(2-(7-(4-((1R,2S)-2-(4-fluorophenyl)-6-hydroxy-1,2,3,4-tetrahydronaphthalen-1-yl)phenyl)-2,7-diazaspiro[3.5]nonan-2-yl)-2-oxoethyl)-6,7,8,9-tetrahydroazepino[4,5-f]isoindole-1,3(2H,5H)-dione]",> 100
14,"O=C1CCC(N2C(=O)c3cc4c(cc3C2=O)CN(CC(=O)N2CCC3(CC2)CCN(c2ccc([C@@H]5c6ccc(O)cc6CC[C@@H]5c5ccc(F)cc5)cn2)CC3)C4)C(=O)N1 (stereo partly drawn) [Compound B54, 2-(2,6-dioxopiperidin-3-yl)-6-(2-(9-(5-((1S,2S)-2-(4-fluorophenyl)-6-hydroxy-1,2,3,4-tetrahydronaphthalen-1-yl)pyridin-2-yl)-3,9-diazaspiro[5.5]undecan-3-yl)-2-oxoethyl)-6,7-dihydropyrrolo[3,4-f]isoindole-1,3(2H,5H)-dione]",> 100
15,"O=C1CCC(N2C(=O)c3cc4c(cc3C2=O)CN(CC(=O)N2CCC3(CC2)CCN(c2ccc([C@@H]5c6ccc(O)cc6CC[C@@H]5c5ccc(F)cc5)cc2)C3)C4)C(=O)N1 (stereo partly drawn) [Compound B55, 2-(2,6-dioxopiperidin-3-yl)-6-(2-(2-(4-((1R,2S)-2-(4-fluorophenyl)-6-hydroxy-1,2,3,4-tetrahydronaphthalen-1-yl)phenyl)-2,8-diazaspiro[4.5]decan-8-yl)-2-oxoethyl)-6,7-dihydropyrrolo[3,4-f]isoindole-1,3(2H,5H)-dione]",10 to 100
16,"O=C1CCC(N2C(=O)c3cc4c(cc3C2=O)CN(CC(=O)N2CCC(n3cc(-c5ccc([C@@H]6c7ccc(O)cc7CC[C@@H]6c6ccccc6)cc5)cn3)CC2)C4)C(=O)N1 (stereo partly drawn) [Compound B58, 2-(2,6-dioxopiperidin-3-yl)-6-(2-(4-(4-(4-((1R,2S)-6-hydroxy-2-phenyl-1,2,3,4-tetrahydronaphthalen-1-yl)phenyl)-1H-pyrazol-1-yl)piperidin-1-yl)-2-oxoethyl)-6,7-dihydropyrrolo[3,4-f]isoindole-1,3(2H,5H)-dione]",> 100
17,"O=C1CCC(N2C(=O)c3cc4c(cc3C2=O)CN(CC(=O)N2CC(n3cc(-c5ccc([C@@H]6c7ccc(O)cc7CC[C@@H]6c6ccccc6)cc5)cn3)C2)C4)C(=O)N1 (stereo partly drawn) [Compound B59, 2-(2,6-dioxopiperidin-3-yl)-6-(2-(3-(4-(4-((1R,2S)-6-hydroxy-2-phenyl-1,2,3,4-tetrahydronaphthalen-1-yl)phenyl)-1H-pyrazol-1-yl)azetidin-1-yl)-2-oxoethyl)-6,7-dihydropyrrolo[3,4-f]isoindole-1,3(2H,5H)-dione]",> 100
18,"O=C1CCC(N2C(=O)c3cc4c(cc3C2=O)CN(CC(=O)N2CCC(Oc3ccc([C@@H]5c6ccc(O)cc6CC[C@@H]5c5ccccc5)cc3)CC2)C4)C(=O)N1 (stereo partly drawn) [Compound B60, 2-(2,6-dioxopiperidin-3-yl)-6-(2-(4-(4-((1R,2S)-6-hydroxy-2-phenyl-1,2,3,4-tetrahydronaphthalen-1-yl)phenoxy)piperidin-1-yl)-2-oxoethyl)-6,7-dihydropyrrolo[3,4-f]isoindole-1,3(2H,5H)-dione]",> 100
19,"O=C1CCC(N2C(=O)c3cc4c(cc3C2=O)CN(C2CCN(CC3CN(c5ccc([C@@H]6c7ccc(O)cc7CC[C@@H]6c6ccccc6)cc5)C3)CC2)C4)C(=O)N1 (stereo partly drawn) [Compound B61, 2-(2,6-dioxopiperidin-3-yl)-6-(1-((1-(4-((1R,2S)-6-hydroxy-2-phenyl-1,2,3,4-tetrahydronaphthalen-1-yl)phenyl)azetidin-3-yl)methyl)piperidin-4-yl)-6,7-dihydropyrrolo[3,4-f]isoindole-1,3(2H,5H)-dione]",< 10
